What was measured:
PAK1 = PAK1 (Homo sapiens, UniProt Q13153); assay: In vitro kinase assay, PAK1 (Caliper EZ Reader conversion); format: biochemical; parameters: purchased Carna Biosciences
Procedure: The effect of the compounds on the activity of SRC and PAK1 kinase were assessed. SRC and PAK1 kinase enzymes were obtained from Carna Biosciences.
Test compounds were dissolved in 100% DMSO to prepare a 20 mM stock. Compounds were stored in −20° C. and protected from light. A 100×solution of the compounds were prepared, from which 4-fold serial dilutions was made to achieve a total of 6 concentrations. Saracatinib was used as a positive control for the SRC assay, and FRAX597 was used as a positive control for the PAK1 assay. For the positive controls, a 3-fold serial dilution was made to achieve a total of 10 concentrations. 10 μL 1× Kinase buffer was used as the negative control.
First, 250 nL of the compounds at each dilution were transferred into wells of a 384-well plate. The PAK1 and SRC kinases were diluted to a 2.5×final concentration with 1×Kinase buffer. Then, 10 μL of enzyme mix was added to the 384-well plate, and the enzymes and compounds were pre-incubated at room temperature for 10 minutes. […] Then, 15 μL of substrate mix was added to a 384-well plate and reacted at room temperature for 30 min and 60 min. The reaction was stopped by adding 30 μL of the stop buffer, and the conversion rate was read using a Caliper EZ Reader.
Percent inhibition is calculated according to the following equation: […]
wherein “Conversion %_sample” is the conversion percentage value of the sample; “Conversion %_min” is the average conversion percentage value of the negative control; and “Conversion %_max” is the average conversion percentage value of the positive control.
The dose-response curve was fitted using GraphPad Prism software (version 5, […]), and the IC50 values for each compounds were calculated by log(inhibitor) vs. response using a variable slope program with the following formula:
Y=Bottom+(Top-Bottom)/(1+10^((Log IC50−X)*HillSlope))

SRC = target: T1, SRC (Homo sapiens, UniProt P12931); assay: In vitro kinase assay, SRC (Caliper EZ Reader conversion); format: biochemical; conditions: read-out: SRC IC50
T1 construct: purchased Carna Biosciences

HPK1 (MAP4K1) = HPK1 (MAP4K1) (Homo sapiens, UniProt Q92918); assay: HPK1 (MAP4K1) kinase Lantha screen assay; format: biochemical
In short: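 Recombinant MAP4K1 preincubated 10 min with compound (6-point dilution, duplicates) in 50 mM HEPES pH 7.5, 10 mM MgCl2, then reacted with Fluorescein-PKC substrate and ATP for 90 min at room temperature. Antibody detection solution stopped reaction; after 60 min, TR-FRET read at ex 340 nm, em 520/495 nm.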

[1] = Mouse pharmacokinetics study (intravenous and oral); format: in vivo; conditions: CD-1 mice; for F / AUC / Cmax / Tmax: PO 25 mg/kg; for Vd / half-life / clearance / AUC / Cmax / Tmax: mouse, plasma; for Vd / half-life / clearance: IV 5 mg/kg; for clearance: read-out: Clp
Description: The test articles were formulated in […] Hydroxypropyl-beta-cyclodextrin, either as a clear solution or fine suspension.

Sequence of HPK1 (MAP4K1) (Q92918 whole entry, species assumed): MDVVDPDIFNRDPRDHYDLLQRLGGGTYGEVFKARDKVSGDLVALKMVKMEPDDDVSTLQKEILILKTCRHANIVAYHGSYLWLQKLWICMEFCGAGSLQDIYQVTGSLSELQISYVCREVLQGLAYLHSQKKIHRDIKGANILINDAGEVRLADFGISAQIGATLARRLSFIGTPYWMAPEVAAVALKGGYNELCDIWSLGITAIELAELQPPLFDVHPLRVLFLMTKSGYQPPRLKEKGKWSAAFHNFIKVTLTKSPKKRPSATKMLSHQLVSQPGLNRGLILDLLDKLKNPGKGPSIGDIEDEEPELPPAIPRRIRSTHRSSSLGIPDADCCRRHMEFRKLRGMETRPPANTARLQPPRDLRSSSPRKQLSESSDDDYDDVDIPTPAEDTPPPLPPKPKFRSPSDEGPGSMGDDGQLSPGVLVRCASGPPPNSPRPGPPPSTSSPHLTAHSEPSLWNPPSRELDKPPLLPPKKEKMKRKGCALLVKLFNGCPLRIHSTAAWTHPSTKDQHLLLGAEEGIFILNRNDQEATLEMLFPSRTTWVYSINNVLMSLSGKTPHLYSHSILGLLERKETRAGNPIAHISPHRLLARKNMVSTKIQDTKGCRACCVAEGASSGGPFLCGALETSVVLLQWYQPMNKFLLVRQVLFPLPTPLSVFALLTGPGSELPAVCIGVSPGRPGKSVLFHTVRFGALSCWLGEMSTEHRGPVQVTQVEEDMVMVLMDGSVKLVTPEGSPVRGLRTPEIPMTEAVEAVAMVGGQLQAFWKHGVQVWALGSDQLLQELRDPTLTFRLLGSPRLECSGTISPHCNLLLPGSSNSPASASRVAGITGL
T1 sequence (P12931 whole entry): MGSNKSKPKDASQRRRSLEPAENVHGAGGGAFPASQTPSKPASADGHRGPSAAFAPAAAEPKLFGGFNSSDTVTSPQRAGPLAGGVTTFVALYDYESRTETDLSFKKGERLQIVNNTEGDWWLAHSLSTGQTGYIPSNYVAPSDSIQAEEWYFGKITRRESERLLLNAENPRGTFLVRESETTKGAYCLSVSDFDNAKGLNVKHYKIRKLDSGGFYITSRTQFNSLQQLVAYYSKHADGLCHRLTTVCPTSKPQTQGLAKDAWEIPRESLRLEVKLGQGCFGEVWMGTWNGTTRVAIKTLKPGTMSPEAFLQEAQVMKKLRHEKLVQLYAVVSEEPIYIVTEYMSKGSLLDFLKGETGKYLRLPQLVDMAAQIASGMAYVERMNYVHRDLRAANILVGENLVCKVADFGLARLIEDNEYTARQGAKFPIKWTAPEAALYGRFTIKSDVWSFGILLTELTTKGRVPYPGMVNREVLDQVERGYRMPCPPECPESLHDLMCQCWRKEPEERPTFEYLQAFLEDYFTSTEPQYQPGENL
Sequence of PAK1 (Q13153 whole entry): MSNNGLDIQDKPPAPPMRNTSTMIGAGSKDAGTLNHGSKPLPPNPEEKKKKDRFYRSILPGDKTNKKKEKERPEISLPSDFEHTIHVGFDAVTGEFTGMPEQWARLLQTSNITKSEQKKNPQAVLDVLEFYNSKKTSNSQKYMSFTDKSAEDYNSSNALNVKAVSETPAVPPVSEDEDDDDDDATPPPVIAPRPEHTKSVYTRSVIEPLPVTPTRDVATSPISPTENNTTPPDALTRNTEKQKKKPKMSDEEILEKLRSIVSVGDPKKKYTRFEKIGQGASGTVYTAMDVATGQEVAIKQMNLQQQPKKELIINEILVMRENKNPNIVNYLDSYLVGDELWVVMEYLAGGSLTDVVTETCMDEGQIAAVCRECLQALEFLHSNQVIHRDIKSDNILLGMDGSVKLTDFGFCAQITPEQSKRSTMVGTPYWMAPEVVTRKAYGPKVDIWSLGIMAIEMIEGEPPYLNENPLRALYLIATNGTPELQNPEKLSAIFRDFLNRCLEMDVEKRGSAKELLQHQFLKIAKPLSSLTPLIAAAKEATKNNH

| Structure (SMILES) | IC50 (PAK1) [µM] | IC50 (SRC) [µM] | AUC [1] [ng·h/mL] | Cmax [1] [ng/mL] | Tmax [1] [h] | also measured |
| --- | --- | --- | --- | --- | --- | --- |
| Clc1cccc(Cl)c1C1=Cc2cnc(Nc3ccncc3)nc2N2CCN=C12 [Compound 52, 6-(2,6-dichlorophenyl)-N-(pyridin-4-yl)-8,9-dihydroimidazo[1′,2′:1,6]pyrido[2,3-d]pyrimidin-2-amine] | > 10 | < 0.1 |  |  |  |  |
| Fc1ccccc1Nc1ncc2c(n1)N1CCCN=C1C(c1cccc3[nH]ccc13)=C2 [Compound 57, N-(2-fluorophenyl)-6-(1H-indol-4-yl)-9,10-dihydro-8H-pyrido[1,6-a:2,3-d′]dipyrimidin-2-amine] | > 10 | > 10 |  |  |  |  |
| Fc1ccccc1Nc1ncc2c(n1)N1CCCN=C1C(c1cccc3[nH]ncc13)=C2 [Compound 58, N-(2-fluorophenyl)-6-(1H-indazol-4-yl)-9,10-dihydro-8H-pyrido[1,6-a:2,3-d′]dipyrimidin-2-amine] | > 10 | 0.1 to 10 |  |  |  |  |
| CNc1ncc2c(n1)N1CCCN=C1C(c1ccc(-n3ccnc(C)c3=O)cc1)=C2 [Compound 64, 3-methyl-1-(4-(2-(methylamino)-9,10-dihydro-8H-pyrido[1,6-a:2,3-d′]dipyrimidin-6-yl)phenyl)pyrazin-2(1H)-one] | > 10 | > 10 |  |  |  |  |
| Fc1cc(N2CCNCC2)ccc1Nc1ncc2c(n1)N1CCCN=C1C(c1ccc(Cl)cc1Cl)=C2 [Compound 68, 6-(2,4-dichlorophenyl)-N-(2-fluoro-4-(piperazin-1-yl)phenyl)-9,10-dihydro-8H-pyrido[1,6-a:2,3-d′]dipyrimidin-2-amine] | > 10 | 0.1 to 10 |  |  |  |  |
| Fc1cc(Nc2ncc3c(n2)N2CCCN=C2C(c2ccc(Cl)cc2Cl)=C3)ccc1N1CCNCC1 [Compound 69, 6-(2,4-dichlorophenyl)-N-(3-fluoro-4-(piperazin-1-yl)phenyl)-9,10-dihydro-8H-pyrido[1,6-a:2,3-d′]dipyrimidin-2-amine] | 0.1 to 10 | < 0.1 |  |  |  |  |
| COc1nc(N2CCNCC2)ccc1Nc1ncc2c(n1)N1CCCN=C1C(c1ccc(Cl)cc1Cl)=C2 [Compound 70, 6-(2,4-dichlorophenyl)-N-(2-methoxy-6-(piperazin-1-yl)pyridin-3-yl)-9,10-dihydro-8H-pyrido[1,6-a:2,3-d′]dipyrimidin-2-amine] | > 10 | 0.1 to 10 |  |  |  |  |
| CNc1ncc2c(n1)N1CCCN=C1C(c1ccc(N3CCN(C)C3=O)cc1Cl)=C2 [Compound 71, 1-(3-chloro-4-(2-(methylamino)-9,10-dihydro-8H-pyrido[1,6-a:2,3-d′]dipyrimidin-6-yl)phenyl)-3-methylimidazolidin-2-one] | > 10 | > 10 |  |  |  |  |
| CNc1ncc2c(n1)N1CCCN=C1C(c1ccc(-n3cccc(C)c3=O)cc1Cl)=C2 [Compound 72, 1-(3-chloro-4-(2-(methylamino)-9,10-dihydro-8H-pyrido[1,6-a:2,3-d′]dipyrimidin-6-yl)phenyl)-3-methylpyridin-2(1H)-one] | 0.1 to 10 | > 10 |  |  |  |  |
| CNc1ncc2c(n1)N1CCCN=C1C(c1ccc(-n3ccnc(C)c3=O)cc1Cl)=C2 [Compound 73, 1-(3-chloro-4-(2-(methylamino)-9,10-dihydro-8H-pyrido[1,6-a:2,3-d′]dipyrimidin-6-yl)phenyl)-3-methylpyrazin-2(1H)-one] | > 10 | > 10 |  |  |  |  |
| Cc1ccc(NC(=O)c2cccc(C(F)(F)F)c2)cc1C1=Cc2cnc(N)nc2N2CCCN=C12 [Compound 75, N-(3-(2-amino-9,10-dihydro-8H-pyrido[1,6-a:2,3-d′]dipyrimidin-6-yl)-4-methylphenyl)-3-(trifluoromethyl)benzamide] | > 10 | < 0.1 |  |  |  |  |
| CNc1ncc2c(n1)N1CCN=C1C(c1cc(NC(=O)c3cc(C(C)(C)C#N)ccn3)ccc1C)=C2 [Compound 163, 4-(2-cyanopropan-2-yl)-N-(4-methyl-3-(2-(methylamino)-8,9-dihydroimidazo[1′,2′:1,6]pyrido[2,3-d]pyrimidin-6-yl)phenyl)picolinamide] |  |  | 6320 ± 4580 | 1100 ± 497 | 1.33 ± 0.58 | IC50 (HPK1 (MAP4K1)): < 0.1 µM; F [1]: 74.6 ± 54%; Vd [1]: 6.61 ± 1.04 L/kg; half-life [1]: 1.57 ± 0.2 h; clearance [1]: 48.8 ± 5.8 mL/min/kg |
| Cc1cc(F)c(NC(=O)c2cc(C(C)(C)C#N)ccn2)cc1C1=Cc2cnc(NC3COC3)nc2N2CCN=C12 [Compound 181, 4-(2-cyanopropan-2-yl)-N-(2-fluoro-4-methyl-5-(2-(oxetan-3-ylamino)-8,9-dihydroimidazo[1′,2′:1,6]pyrido[2,3-d]pyrimidin-6-yl)phenyl)picolinamide] |  |  | 8610 ± 903 | 1760 ± 380 | 2 | IC50 (HPK1 (MAP4K1)): < 0.1 µM; F [1]: 58.1 ± 6.1%; Vd [1]: 4.78 ± 1.21 L/kg; half-life [1]: 2.01 ± 0.82 h; clearance [1]: 28.5 ± 3.8 mL/min/kg |
| Cc1ccc(NC(=O)c2cc(C(C)(C)C#N)ccn2)cc1C1=Cc2cnc(Nc3cnn(C)c3)nc2N2CCN=C12 [Compound 199, 4-(2-cyanopropan-2-yl)-N-(4-methyl-3-(2-((1-methyl-1H-pyrazol-4-yl)amino)-8,9-dihydroimidazo[1′,2′:1,6]pyrido[2,3-d]pyrimidin-6-yl)phenyl)picolinamide] |  |  | 1730 ± 619 | 245 ± 37 | 2 |  |
| Cc1cc(F)c(NC(=O)c2cc(C(C)(C)C#N)ccn2)cc1C1=Cc2cnc(Nc3cnn(C)c3)nc2N2CCN=C12 [Compound 202, 4-(2-cyanopropan-2-yl)-N-(2-fluoro-4-methyl-5-(2-((1-methyl-1H-pyrazol-4-yl)amino)-8,9-dihydroimidazo[1′,2′:1,6]pyrido[2,3-d]pyrimidin-6-yl)phenyl)picolinamide] |  |  | 8160 ± 1270 | 839 ± 59 | 1.67 ± 0.58 | F [1]: 56 ± 9%; Vd [1]: 9.64 ± 1.99 L/kg; half-life [1]: 3.99 ± 0.72 h; clearance [1]: 27.8 ± 1 mL/min/kg |
| Cc1ncc(Nc2ncc3c(n2)N2CCN=C2C(c2cc(NC(=O)c4cc(C(F)(F)F)ccn4)ccc2C)=C3)s1 [Compound 231, N-(4-methyl-3-(2-((2-methylthiazol-5-yl)amino)-8,9-dihydroimidazo[1′,2′:1,6]pyrido[2,3-d]pyrimidin-6-yl)phenyl)-4-(trifluoromethyl)picolinamide] |  |  | 16200 ± 2100 | 1190 ± 302 | 1.67 ± 0.58 | IC50 (HPK1 (MAP4K1)): < 0.1 µM |
| Cc1csc(Nc2ncc3c(n2)N2CCN=C2C(c2cc(NC(=O)c4cc(C(F)(F)F)ccn4)ccc2C)=C3)n1 [Compound 233, N-(4-methyl-3-(2-((4-methylthiazol-2-yl)amino)-8,9-dihydroimidazo[1′,2′:1,6]pyrido[2,3-d]pyrimidin-6-yl)phenyl)-4-(trifluoromethyl)picolinamide] |  |  | 12000 ± 2750 | 893 ± 258 | 6.67 ± 2.31 | IC50 (HPK1 (MAP4K1)): < 0.1 µM |
| Cc1ccc(NC(=O)c2cc(C(F)(F)F)ccn2)cc1C1=Cc2cnc(Nc3ccn(C)n3)nc2N2CCN=C12 [Compound 234, N-(4-methyl-3-(2-((1-methyl-1H-pyrazol-3-yl)amino)-8,9-dihydroimidazo[1′,2′:1,6]pyrido[2,3-d]pyrimidin-6-yl)phenyl)-4-(trifluoromethyl)picolinamide] |  |  | 20500 ± 2190 | 1630 ± 151 | 2 | IC50 (HPK1 (MAP4K1)): < 0.1 µM |
| Cc1cc(Nc2ncc3c(n2)N2CCN=C2C(c2cc(NC(=O)c4cc(C(F)(F)F)ccn4)ccc2C)=C3)sn1 [Compound 242, N-(4-methyl-3-(2-((3-methylisothiazol-5-yl)amino)-8,9-dihydroimidazo[1′,2′:1,6]pyrido[2,3-d]pyrimidin-6-yl)phenyl)-4-(trifluoromethyl)picolinamide] |  |  | 36900 ± 4060 | 3060 ± 253 | 1.67 ± 0.58 |  |
| Cc1ccc(NC(=O)c2cc(C(F)(F)F)ccn2)cc1C1=Cc2cnc(Nc3cncs3)nc2N2CCN=C12 [Compound 256, N-(4-methyl-3-(2-(thiazol-5-ylamino)-8,9-dihydroimidazo[1′,2′:1,6]pyrido[2,3-d]pyrimidin-6-yl)phenyl)-4-(trifluoromethyl)picolinamide] |  |  | 11700 ± 1430 | 1180 ± 193 | 1.33 ± 0.58 |  |
